Read-outs that look alike come from different tables or passages of the source.
Legend:
[1] = test system: AB-1: Acinetobacter baumannii H#
Procedure: (§1) There are five most difficult-to-treat MDR Gram-negative pathogen species in the clinic, which are also typical GSH-positive bacteria: Klebsiella pneumonia, Acinetobacter baumannii, Pseudomonas aeruginosa, Enterobacter cloacae and Escherichia coli. Two strains of each species were isolated, overnight cultures were diluted 1:1000 times in LB medium, and treated with Ag^+ with a serial concentration of ebselen in combination for 16 h. […] Among these five species, A. baumannii and E. cloacae are very readily formed drug-resistant strains, which are needed to be treated by or the fourth-generation cephalosporin in the clinic, including imipenem, cefepime, and cefotaxime, etc.
(§2) Ten clinical isolated MDR Gram-negative (GSH-positive) strains were grown until an OD600 nm of 0.4 and were diluted 1:100 into 100 μl of LB medium in 96 micro-well plates. Serial dilutions of 100 μl ebselen and AgNO3 were added to the individual wells. […] The culture treated with 0.8% (v/v) DMSO was used as a control.

AB-2: A. baumannii 0361# = test system: AB-2: A. baumannii 0361#
Procedure: as §1, §2

[2] = test system: ECL-1: Enterobacter cloacae 0431#
Procedure: as §1, §2

ECL-2: E. cloacae 2301# = test system: ECL-2: E. cloacae 2301#
Procedure: as §1, §2

[3] = test system: ECO-1: Escherichia coli 1139#
Procedure: as §1, §2

ECO-2: E. coli 2219# = test system: ECO-2: E. coli 2219#
Procedure: as §1, §2

ECO-3: E. coli ZY-1 = test system: ECO-3: E. coli ZY-1
Procedure: as §1, §2

[4] = test system: ECO-4: MG1655 (ATCC 700926)
Procedure: as §1, §2

[5] = test system: KP-1: Klebsiella pneumoniae subsp. pneumoniae 13#
Procedure: as §1, §2

[6] = test system: KP-2: K. pneumoniae subsp. pneumoniae 0322#
Procedure: as §1, §2

[7] = test system: PA-1: Pseudomonas aeruginosa 1298#
Procedure: as §1, §2

[8] = test system: PA-2: P. aeruginosa 0009#
Procedure: as §1, §2

O=[N+]([O-])[O-].[Ag+] [silver, silver nitrate]
MIC of silver in the presence of ebselen ([1]; Ebselen 0 μM): 80 µM | MIC of silver in the presence of ebselen ([1]; Ebselen 1 μM): 80 µM | MIC of silver in the presence of ebselen ([1]; Ebselen 2 μM): 40 µM | MIC of silver in the presence of ebselen ([1]; Ebselen 4 μM): 10 µM | MIC of silver in the presence of ebselen (AB-2: A. baumannii 0361#; Ebselen 0 μM): 80 µM | MIC of silver in the presence of ebselen (AB-2: A. baumannii 0361#; Ebselen 1 μM): 80 µM | MIC of silver in the presence of ebselen (AB-2: A. baumannii 0361#; Ebselen 2 μM): 40 µM | MIC of silver in the presence of ebselen (AB-2: A. baumannii 0361#; Ebselen 4 μM): 20 µM | MIC of silver in the presence of ebselen ([2]; Ebselen 0 μM): 80 µM | MIC of silver in the presence of ebselen ([2]; Ebselen 1 μM): 40 µM | MIC of silver in the presence of ebselen ([2]; Ebselen 2 μM): 20 µM | MIC of silver in the presence of ebselen ([2]; Ebselen 4 μM): 20 µM | MIC of silver in the presence of ebselen (ECL-2: E. cloacae 2301#; Ebselen 0 μM): 80 µM | MIC of silver in the presence of ebselen (ECL-2: E. cloacae 2301#; Ebselen 1 μM): 40 µM | MIC of silver in the presence of ebselen (ECL-2: E. cloacae 2301#; Ebselen 2 μM): 40 µM | MIC of silver in the presence of ebselen (ECL-2: E. cloacae 2301#; Ebselen 4 μM): 10 µM | MIC of silver in the presence of ebselen ([3]; Ebselen 0 μM): 40 µM | MIC of silver in the presence of ebselen ([3]; Ebselen 1 μM): 20 µM | MIC of silver in the presence of ebselen ([3]; Ebselen 2 μM): 10 µM | MIC of silver in the presence of ebselen ([3]; Ebselen 4 μM): 5 µM | MIC of silver in the presence of ebselen (ECO-2: E. coli 2219#; Ebselen 0 μM): 80 µM | MIC of silver in the presence of ebselen (ECO-2: E. coli 2219#; Ebselen 1 μM): 80 µM | MIC of silver in the presence of ebselen (ECO-2: E. coli 2219#; Ebselen 2 μM): 40 µM | MIC of silver in the presence of ebselen (ECO-2: E. coli 2219#; Ebselen 4 μM): 10 µM | MIC of silver in the presence of ebselen (ECO-3: E. coli ZY-1; Ebselen 0 μM): 40 µM | MIC of silver in the presence of ebselen (ECO-3: E. coli ZY-1; Ebselen 1 μM): 40 µM | MIC of silver in the presence of ebselen (ECO-3: E. coli ZY-1; Ebselen 2 μM): 20 µM | MIC of silver in the presence of ebselen (ECO-3: E. coli ZY-1; Ebselen 4 μM): 10 µM | MIC of silver in the presence of ebselen ([4]; Ebselen 0 μM): 40 µM | MIC of silver in the presence of ebselen ([4]; Ebselen 1 μM): 20 µM | MIC of silver in the presence of ebselen ([4]; Ebselen 2 μM): 10 µM | MIC of silver in the presence of ebselen ([4]; Ebselen 4 μM): 5 µM | MIC of silver in the presence of ebselen ([5]; Ebselen 0 μM): 80 µM | MIC of silver in the presence of ebselen ([5]; Ebselen 1 μM): 80 µM | MIC of silver in the presence of ebselen ([5]; Ebselen 2 μM): 40 µM | MIC of silver in the presence of ebselen ([5]; Ebselen 4 μM): 10 µM | MIC of silver in the presence of ebselen ([6]; Ebselen 0 μM): 80 µM | MIC of silver in the presence of ebselen ([6]; Ebselen 1 μM): 40 µM | MIC of silver in the presence of ebselen ([6]; Ebselen 2 μM): 20 µM | MIC of silver in the presence of ebselen ([6]; Ebselen 4 μM): 20 µM | MIC of silver in the presence of ebselen ([7]; Ebselen 0 μM): 80 µM | MIC of silver in the presence of ebselen ([7]; Ebselen 1 μM): 80 µM | MIC of silver in the presence of ebselen ([7]; Ebselen 2 μM): 20 µM | MIC of silver in the presence of ebselen ([7]; Ebselen 4 μM): 20 µM | MIC of silver in the presence of ebselen ([8]; Ebselen 0 μM): 80 µM | MIC of silver in the presence of ebselen ([8]; Ebselen 1 μM): 80 µM | MIC of silver in the presence of ebselen ([8]; Ebselen 2 μM): 40 µM | MIC of silver in the presence of ebselen ([8]; Ebselen 4 μM): 20 µM
